Assay results: ChEMBL document CHEMBL3400030, “Synthesis and biological evaluation of nonionic substrate mimics of UDP-Galp as candidate inhibitors of UDP galactopyranose mutase (UGM)” (Bioorg Med Chem Lett, 2015)

Assays:
[1] = system: Mycobacterium tuberculosis; experiment: Inhibition of Mycobacterium tuberculosis UGM assessed as conversion of UDP-Galf into UDP-Galp at 500 uM by HPLC method; design: scale not given: the % may be the effect or the level left
[2] = system: Mycobacterium tuberculosis; experiment: Inhibition of Mycobacterium tuberculosis UGM assessed as inhibition of conversion of UDP-Galf into UDP-Galp at 500 uM by HPLC method

SMILES	Activity [1]	inhibition [2]
O=c1ccn(C[C@@H](O)[C@@H](O)[C@H](O)[C@H](CO)O[C@@H]2O[C@H](CO)[C@H](O)[C@H](O)[C@H]2O)c(=O)[nH]1	39%	28%
O=c1ccn(C[C@@H](O)[C@@H](O)[C@H](O)[C@H](CO)O[C@H]2O[C@H](CO)[C@H](O)[C@H](O)[C@H]2O)c(=O)[nH]1	47%	30%
